Active and inactive are the calls of the source. The rule behind the calls is not given here.
Key:
[1] = system: HCC 2998; assay: Anticancer activity against human HCC 2998 cells assessed as inhibition of cell growth at 10 uM incubated for 48 hrs by SRB assay; format: functional; conditions: HCC 2998, 48 h, values are per cent of control
[2] = system: HL-60; assay: Anticancer activity against human HL-60 cells assessed as growth inhibition incubated for 48 hrs by SRB assay; format: functional
[3] = system: MOLT-4; assay: Anticancer activity against human MOLT-4 cells assessed as growth inhibition incubated for 48 hrs by SRB assay; format: functional
[4] = system: RPMI-8226; assay: Anticancer activity against human RPMI-8226 cells assessed as growth inhibition incubated for 48 hrs by SRB assay; format: functional
[5] = system: NCI-H322M; assay: Anticancer activity against human NCI-H322M cells assessed as growth inhibition incubated for 48 hrs by SRB assay; format: functional
[6] = system: COLO 205; assay: Anticancer activity against human COLO 205 cells assessed as growth inhibition incubated for 48 hrs by SRB assay; format: functional
[7] = system: HT-29; assay: Anticancer activity against human HT-29 cells assessed as growth inhibition incubated for 48 hrs by SRB assay; format: functional
[8] = system: SF-295; assay: Anticancer activity against human SF-295 cells assessed as growth inhibition incubated for 48 hrs by SRB assay; format: functional
[9] = system: Malme-3M; assay: Anticancer activity against human Malme-3M cells assessed as growth inhibition incubated for 48 hrs by SRB assay; format: functional
[10] = system: M14; assay: Anticancer activity against human M14 cells assessed as growth inhibition incubated for 48 hrs by SRB assay; format: functional
[11] = system: SK-MEL-5; assay: Anticancer activity against human SK-MEL-5 cells assessed as growth inhibition incubated for 48 hrs by SRB assay; format: functional
[12] = system: CAKI-1; assay: Anticancer activity against human CAKI-1 cells assessed as growth inhibition incubated for 48 hrs by SRB assay; format: functional
[13] = system: UO-31; assay: Anticancer activity against human UO-31 cells assessed as growth inhibition incubated for 48 hrs by SRB assay; format: functional
[14] = system: PC-3; assay: Anticancer activity against human PC-3 cells assessed as growth inhibition incubated for 48 hrs by SRB assay; format: functional
[15] = system: SR; assay: Anticancer activity against human SR cells assessed as total growth inhibition incubated for 48 hrs by SRB assay; format: functional
[16] = system: A549; assay: Anticancer activity against human A549 cells assessed as total growth inhibition incubated for 48 hrs by SRB assay; format: functional
[17] = system: HOP-92; assay: Anticancer activity against human HOP-92 cells assessed as total growth inhibition incubated for 48 hrs by SRB assay; format: functional
[18] = system: NCI-H322M; assay: Anticancer activity against human NCI-H322M cells assessed as total growth inhibition incubated for 48 hrs by SRB assay; format: functional
[19] = system: HCT-116; assay: Anticancer activity against human HCT-116 cells assessed as total growth inhibition incubated for 48 hrs by SRB assay; format: functional
[20] = system: HCT-15; assay: Anticancer activity against human HCT-15 cells assessed as total growth inhibition incubated for 48 hrs by SRB assay; format: functional
[21] = system: SF-268; assay: Anticancer activity against human SF-268 cells assessed as total growth inhibition incubated for 48 hrs by SRB assay; format: functional
[22] = system: M14; assay: Anticancer activity against human M14 cells assessed as total growth inhibition incubated for 48 hrs by SRB assay; format: functional
[23] = system: SK-MEL-2; assay: Anticancer activity against human SK-MEL-2 cells assessed as total growth inhibition incubated for 48 hrs by SRB assay; format: functional
[24] = system: UACC-62; assay: Anticancer activity against human UACC-62 cells assessed as total growth inhibition incubated for 48 hrs by SRB assay; format: functional
[25] = system: 786-0; assay: Anticancer activity against human 786-0 cells assessed as total growth inhibition incubated for 48 hrs by SRB assay; format: functional
[26] = system: TK-10; assay: Anticancer activity against human TK-10 cells assessed as total growth inhibition incubated for 48 hrs by SRB assay; format: functional
[27] = system: MDA-MB-468; assay: Anticancer activity against human MDA-MB-468 cells assessed as total growth inhibition incubated for 48 hrs by SRB assay; format: functional
[28] = system: CCRF-CEM; assay: Anticancer activity against human CCRF-CEM cells assessed as lethality incubated for 48 hrs by SRB assay; format: functional; conditions: read-out: LC50 (the source's name)
[29] = system: HL-60; assay: Anticancer activity against human HL-60 cells assessed as lethality incubated for 48 hrs by SRB assay; format: functional; conditions: read-out: LC50 (the source's name)
[30] = system: RPMI-8226; assay: Anticancer activity against human RPMI-8226 cells assessed as lethality incubated for 48 hrs by SRB assay; format: functional; conditions: read-out: LC50 (the source's name)
[31] = system: HOP-92; assay: Anticancer activity against human HOP-92 cells assessed as lethality incubated for 48 hrs by SRB assay; format: functional; conditions: read-out: LC50 (the source's name)
[32] = system: NCI-H23; assay: Anticancer activity against human NCI-H23 cells assessed as lethality incubated for 48 hrs by SRB assay; format: functional; conditions: read-out: LC50 (the source's name)
[33] = system: NCI-H322M; assay: Anticancer activity against human NCI-H322M cells assessed as lethality incubated for 48 hrs by SRB assay; format: functional; conditions: read-out: LC50 (the source's name)
[34] = system: HT-29; assay: Anticancer activity against human HT-29 cells assessed as lethality incubated for 48 hrs by SRB assay; format: functional; conditions: read-out: LC50 (the source's name)
[35] = system: SF-539; assay: Anticancer activity against human SF-539 cells assessed as lethality incubated for 48 hrs by SRB assay; format: functional; conditions: read-out: LC50 (the source's name)
[36] = system: Malme-3M; assay: Anticancer activity against human Malme-3M cells assessed as lethality incubated for 48 hrs by SRB assay; format: functional; conditions: read-out: LC50 (the source's name)
[37] = system: SK-MEL-2; assay: Anticancer activity against human SK-MEL-2 cells assessed as lethality incubated for 48 hrs by SRB assay; format: functional; conditions: read-out: LC50 (the source's name)
[38] = system: SK-MEL-28; assay: Anticancer activity against human SK-MEL-28 cells assessed as lethality incubated for 48 hrs by SRB assay; format: functional; conditions: read-out: LC50 (the source's name)
[39] = system: SN12C; assay: Anticancer activity against human SN12C cells assessed as lethality incubated for 48 hrs by SRB assay; format: functional; conditions: read-out: LC50 (the source's name)
[40] = system: UO-31; assay: Anticancer activity against human UO-31 cells assessed as lethality incubated for 48 hrs by SRB assay; format: functional; conditions: read-out: LC50 (the source's name)
[41] = system: T47D; assay: Anticancer activity against human T47D cells assessed as lethality incubated for 48 hrs by SRB assay; format: functional; conditions: read-out: LC50 (the source's name)
[42] = system: A549; assay: Anticancer activity against human A549 cells assessed as cell growth inhibition incubated for 72 hrs by MTT assay; format: functional
[43] = system: MCF7; assay: Anticancer activity against human MCF7 cells assessed as cell growth inhibition incubated for 72 hrs by MTT assay; format: functional
[44] = system: MDA-MB-231; assay: Anticancer activity against human MDA-MB-231 cells assessed as cell growth inhibition incubated for 72 hrs by MTT assay; format: functional
[45] = system: HCT-116; assay: Anticancer activity against human HCT-116 cells assessed as cell growth inhibition incubated for 72 hrs by MTT assay; format: functional
[46] = Selectivity index, ratio of GI50 for human HaCaT cells to GI50 for human A549 cells; format: toxicity; conditions: HaCaT cells versus A549 cells, read-out: RatioGI50
[47] = system: Jurkat; assay: Induction of morphological changes in human Jurkat cells assessed as chromatin topology incubated for 24 hrs by Hoechst 33258 and propidium iodide staining based fluorescence microscopy; format: functional, cell-based
[48] = system: Jurkat; assay: Induction of morphological changes in human Jurkat cells assessed as chromatin fragmentation incubated for 24 hrs by Hoechst 33258 and propidium iodide staining based fluorescence microscopy; format: functional, cell-based
[49] = system: Jurkat; assay: Induction of morphological changes in human Jurkat cells assessed as plasma membrane blebbing incubated for 24 hrs by Hoechst 33258 and propidium iodide staining based fluorescence microscopy; format: functional, cell-based
[50] = system: Salmon testes DNA; assay: Displacement of methyl green from salmon sperm DNA at 1 uM measured after 2 hrs by fluorescence plate reader method relative to control; format: nucleic-acid assay; conditions: Salmo salar

SMILES: O=C1CC(N2C(=O)/C(=C/C(Cl)=C/c3ccc([N+](=O)[O-])cc3)SC2=S)C(=O)N1c1ccc(O)cc1 (stereo not given)
- growth, % of control at 10 µM [1]: -81.6%
- GI50 [2]: 2.44 µM
- GI50 [3]: 0.534 µM
- GI50 [4]: 0.295 µM
- GI50 [5]: 2.34 µM
- GI50 [6]: 1.83 µM
- GI50 [7]: 0.847 µM
- GI50 [8]: 1.31 µM
- GI50 [9]: 2.31 µM
- GI50 [10]: 1.46 µM
- GI50 [11]: 1.92 µM
- GI50 [12]: 1.15 µM
- GI50 [13]: 1.35 µM
- GI50 [14]: 0.906 µM
- TGI [15]: 4.97 µM
- TGI [16]: 11.4 µM
- TGI [17]: 3.72 µM
- TGI [18]: 6.67 µM
- TGI [19]: 2.14 µM
- TGI [20]: 1.95 µM
- TGI [21]: 6.99 µM
- TGI [22]: 3.31 µM
- TGI [23]: 7.83 µM
- TGI [24]: 3.38 µM
- TGI [25]: 4.8 µM
- TGI [26]: 3.79 µM
- TGI [27]: 5.7 µM
- CC50 [28]: > 100 µM
- CC50 [29]: > 100 µM
- CC50 [30]: > 100 µM
- CC50 [31]: 8.54 µM
- CC50 [32]: 7.94 µM
- CC50 [33]: 24.3 µM
- CC50 [34]: > 100 µM
- CC50 [35]: 8.43 µM
- CC50 [36]: 21 µM
- CC50 [37]: 54.3 µM
- CC50 [38]: 9.05 µM
- CC50 [39]: 24.6 µM
- CC50 [40]: 5.78 µM
- CC50 [41]: > 100 µM
- GI50 [42]: 7.25 µM
- GI50 [43]: 4 µM
- GI50 [44]: 6.2 µM
- GI50 [45]: 4.52 µM
- selectivity ratio [46]: 10.2
- Activity [47]: Active
- Activity [48]: Active
- Activity [49]: Active
- Activity [50]: 1.4%
